According to ChEMBL document CHEMBL1201862, “PubChem BioAssay data set” (2004):
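Interpolation was linear, between the two tested concentrations surrounding the appropriate level; five concentrations were tested over 48 hours in 96-well plates. Abbreviation: GI50, concentration required for 50% inhibition of growth.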 The source made the active and inactive calls. Cut-off read from the data, not from the text of the source: active = GI50 up to about 1.1 µM and inactive = higher.

Assays:
Experiment in all cases: inhibition of tumour cell growth, NCI panel, 48 h
[1] = tested on: T47D
[2] = tested on: PC-3
[3] = tested on: MDA-N
[4] = tested on: Hs-578T
[5] = tested on: MDA-MB-231
[6] = tested on: MDA-MB-435

Measured: GI50

CC(=O)Nc1ccc(Sc2nnc(NC(C)=O)s2)cc1
inactive: [1] > 100 µM | [2] > 100 µM | [3] > 100 µM | [4] > 100 µM | [5] > 100 µM | [6] > 100 µM
